pIC50: −log10 of the molar value. The source made the active and inactive calls. No cut-off for these calls is given here.

Holding throughout (type): functional, cell-based
Experiment [1] has as its system HeLa C3. The experiment in a line: Induction of apoptosis in human HeLaC3 cells assessed as caspase-3 activation at 5 uM after 72 hrs by YFP/CFP-based FRET analysis.
Experiment [2] relates to HeLa. The experiment in a line: Induction of apoptosis in human HeLa cells assessed as increase in PARP cleavage at 5 uM after 48 hrs by Western blotting analysis. A general note: Immunoblotting shows a protein as a band on a membrane.
Experiment [3] has as its system HeLa. Nature of the experiment: Cytotoxicity against human HeLa cells after 72 hrs by MTT assay. In general terms: Formazan colour is commonly taken as a measure of viable cells.
For experiment [4], the system named is HeLa C3. Nature of the experiment: Induction of apoptosis in human HeLaC3 cells assessed as caspase-3 activation at 2.5 uM after 72 hrs by YFP/CFP-based FRET analysis.
Experiment [5] has as its system HeLa C3. Nature of the experiment: Induction of apoptosis in human HeLaC3 cells assessed as caspase-3 activation at 10 uM after 72 hrs by YFP/CFP-based FRET analysis.
Experiment [6] deals with HeLa C3. The experiment in a line: Induction of apoptosis in human HeLaC3 cells assessed as caspase-3 activation at 1 uM after 72 hrs by YFP/CFP-based FRET analysis.
Experiment [7] relates to HeLa. The experiment in a line: Induction of apoptosis in human HeLa cells assessed as increase in PARP cleavage at 5 uM after 24 hrs by Western blotting analysis.
The test system of experiment [8] is HeLa. Nature of the experiment: Induction of apoptosis in human HeLa cells assessed as increase in PARP cleavage at 10 uM after 48 hrs by Western blotting analysis.
Experiment [9] relates to HeLa. The experiment in a line: Induction of apoptosis in human HeLa cells assessed as increase in PARP cleavage at 10 uM after 24 hrs by Western blotting analysis.

On to `CO[C@@]12C=C3C(=O)c4c(O)cc(O)c(CC=C(C)C)c4O[C@@]34[C@@H](C1)C(C)(C)O[C@@]4(CC=C(C)C)C2=O` [GAUDICHAUDIONE H], for which the outcome with HeLa C3 [1], with HeLa [2], in the experiment on HeLa C3 [4], in the experiment with HeLa C3 [5] and with HeLa [7] was Active. The negative logarithm of the IC50 (pIC50) (usually −log10 of the IC50, conventionally taken in molar units) in the experiment with HeLa [3] was 6.05. Also, the result in the experiment with HeLa C3 [6] was inactive.
As for `CC(C)=CCC1(CC=C(C)C)C(=O)C(O)=C(O)c2oc3cc4c(c(O)c3c(=O)c21)C=CC(C)(C)O4` [OLIGANTHIN A], the outcome in the experiment with HeLa C3 [1], with HeLa [2], with HeLa C3 [4], with HeLa C3 [5] and in the experiment with HeLa [7] was Active. The same compound had a pIC50 in the experiment with HeLa [3] of 5.80. In addition, the result in the experiment on HeLa C3 [6] was inactive.
Regarding `CC(C)=CCC1(O)C(=O)c2oc3cc4c(c(O)c3c(=O)c2C(CC=C(C)C)(CC=C(C)C)C1=O)C=CC(C)(C)O4` (stereo unspecified) [OLIGANTHIN B], the result with HeLa C3 [1], with HeLa [8], in the experiment with HeLa C3 [5] and in the experiment on HeLa [9] was Active. In the experiment on HeLa [3], this compound showed a pIC50 of 5.82. In addition, the result with HeLa C3 [4] and with HeLa C3 [6] was inactive.
Regarding `CC(C)=CCc1c(O)cc2oc3c(c(=O)c2c1O)C(CC=C(C)C)(CC=C(C)C)C(=O)C(O)(CC=C(C)C)C3=O` (stereo unspecified) [OLIGANTHIN C], the result with HeLa C3 [1], with HeLa C3 [4] and in the experiment on HeLa C3 [6] was inactive. The pIC50 in the experiment on HeLa [3] is 5.38. Further, the outcome in the experiment with HeLa C3 [5] was Active.
With `CC(=O)CC1(O)C(=O)c2oc3cc4c(c(O)c3c(=O)c2C(CC=C(C)C)(CC=C(C)C)C1=O)C=CC(C)(C)O4` (stereo unspecified) [OLIGANTHIN D], the outcome in the experiment on HeLa C3 [1], in the experiment on HeLa C3 [4] and with HeLa C3 [6] was inactive. In addition, the pIC50 with HeLa [3] is 5.11. Besides, the outcome in the experiment with HeLa C3 [5] was Active.

For the origin of these results see ChEMBL document CHEMBL2010690, “Identification and evaluation of apoptotic compounds from Garcinia oligantha” (Bioorg Med Chem Lett, 2012).
